ChEMBL document CHEMBL1123692, “Dopamine autoreceptor agonists: resolution and pharmacological activity of 2,6-diaminotetrahydrobenzothiazole and an aminothiazole analogue of apomorphine” (J Med Chem, 1987)

Key:
Rattus norvegicus [1] = test: Accumulation of nmol of L-DOPA/g of tissue weight corpus striatum elicited by injection of GBL and NSD at a dose of 10 mg/kg; type: functional
Rattus norvegicus [2] = test: Utilization of DA/g by total brain without cerebellum following alpha-MT (250 mg/kg) at a dose of 10 mg/kg; type: functional
Rattus norvegicus [3] = test: Percent difference of DA utilization when compared to saline at a dose of 10 mg/kg; type: functional
Rattus norvegicus [4] = test: Percent difference of L-DOPA accumulation when compared to saline at a dose of 10 mg/kg; type: functional
Rattus norvegicus [5] = test: Percent difference of L-DOPA accumulation when compared to saline at a dose of 1.0 mg/kg

Row | SMILES | Accumulation (Rattus norvegicus [1]; 10 mg/kg) | DA utilization (Rattus norvegicus [2]; 10 mg/kg) | Difference (Rattus norvegicus [3]; 10 mg/kg) | Difference (Rattus norvegicus [4]; 10 mg/kg) | Accumulation (Rattus norvegicus [1]) | DA utilization (Rattus norvegicus [2]) | Difference (Rattus norvegicus [3]) | Difference (Rattus norvegicus [5]) | Difference (Rattus norvegicus [4])
1 | CN1CCc2cccc3c2C1Cc1sc(N)nc1-3.Cl.Cl (single isomer, unassigned; (-)) | 20.1 | 3917 | 41% | -16% |  |  |  |  | 
2 | CCCN[C@@H]1CCc2nc(N)sc2C1.Cl.Cl |  |  |  |  | 19 | 5104 | 84% | -21% | 
3 | CCCN[C@H]1CCc2nc(N)sc2C1.Cl.Cl |  |  |  |  | 11.3 | 6417 |  | -53% | 
4 | CN1CCc2cccc3c2C1Cc1sc(N)nc1-3.Cl.Cl (single isomer, unassigned; (+)) | 24.4 | 2441 | -12% | 1% |  |  |  |  | 
5 | CN1CCc2cccc3c2[C@H]1Cc1ccc(O)c(O)c1-3 [APOMORPHINE] |  |  |  |  | 8.9 | 4008 | 44% |  | -63%
6 | Cl.Cl.Nc1nc2c(s1)C[C@H](N)CC2 |  |  |  |  |  | 2441 | -12% |  | 
7 | CCCN1CCCC2Cc3nc(N)sc3CC21 (stereo unspecified) |  |  |  |  | 9.1 | 4863 | 75% |  | -62%
8 | Cl.Cl.Nc1nc2c(s1)C[C@@H](N)CC2 |  |  |  |  |  | 2317 | -17% |  | 
9 | CN1CCc2cccc3c2C1Cc1sc(N)nc1-3 (racemic) |  |  |  |  | 14.9 | 3721 | 34% |  | -38%
